In patent US20210380548A1, “Fused [1,2,4]Thiadiazine Derivatives Which Act as KAT Inhibitors of the MYST Family” (CTxT Pty Limited, priority 2017, published 2021):

Columns and labels:
HBO-KAT7 [1] = molecular target: T1, HBO-KAT7 (Homo sapiens, UniProt O95251); assay: Revised Acetyltransferase Biochemical Assay, KAT7; settings: Table 9 (HBO-KAT7), 1 μM Acetyl coenzyme A
T1 construct: encoding amino acid residues 325 to 611 (Uniprot 095251-1) of human KAT7; made in house; host or cells: E. coli BL21 DE3 RIL
T1 sequence (O95251 with tags, fused parts or gaps): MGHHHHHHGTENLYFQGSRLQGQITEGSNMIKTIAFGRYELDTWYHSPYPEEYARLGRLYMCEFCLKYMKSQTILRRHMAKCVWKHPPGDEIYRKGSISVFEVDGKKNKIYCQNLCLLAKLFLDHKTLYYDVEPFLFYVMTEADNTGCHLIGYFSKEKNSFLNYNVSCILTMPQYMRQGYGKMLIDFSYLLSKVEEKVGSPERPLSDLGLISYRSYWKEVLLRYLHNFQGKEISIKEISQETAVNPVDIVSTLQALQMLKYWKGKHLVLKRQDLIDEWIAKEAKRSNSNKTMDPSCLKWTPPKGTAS

TIP60-KAT5 [2] = molecular target: T2, TIP60-KAT5 (Homo sapiens, UniProt Q92993); assay: Acetyltransferase biochemical assay (AlphaScreen), KAT5; settings: Table 1 (TIP60-KAT5); 0.4 μM Acetyl coenzyme A, histone H4, 10 nM enzyme
T2 construct: encoding amino acid residues 2 to 461 (Uniprot Q92993-2) of human KAT5 isoform; made in house; host or cells: E. coli BL21 DE3
T2 sequence (Q92993 2-461 isoform Q92993-2): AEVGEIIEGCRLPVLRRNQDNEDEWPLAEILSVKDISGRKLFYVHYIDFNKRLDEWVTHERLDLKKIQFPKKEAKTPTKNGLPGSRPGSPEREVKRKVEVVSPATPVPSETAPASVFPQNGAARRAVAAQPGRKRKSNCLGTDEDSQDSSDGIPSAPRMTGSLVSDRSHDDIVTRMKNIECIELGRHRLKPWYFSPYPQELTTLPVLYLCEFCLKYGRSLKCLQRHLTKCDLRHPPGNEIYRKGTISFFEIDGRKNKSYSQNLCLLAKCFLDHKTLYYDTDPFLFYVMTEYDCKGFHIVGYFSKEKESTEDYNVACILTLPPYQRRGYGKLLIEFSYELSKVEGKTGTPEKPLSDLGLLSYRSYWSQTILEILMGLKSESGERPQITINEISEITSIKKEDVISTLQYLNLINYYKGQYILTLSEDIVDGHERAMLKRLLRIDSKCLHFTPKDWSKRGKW

TIP60-KAT5 [3] = molecular target: T2, TIP60-KAT5; assay: Revised Acetyltransferase Biochemical Assay, KAT5; settings: 10 nM KAT5, 1 μM AcCoA, 100 nM histone H4, 90 min
[4] = tested on: histone H3K23 acetylation (KATE mediated) in U2OS cells; assay: Histone H3 Lysine 23 Acetylation Biomarker Assay (U2OS); type: cell-based; settings: 96 well, 24 hours incubation
Method: Compounds may be tested for their ability to inhibit acetylation of the histone H3K23 marker, which is KATE mediated, in the following assay:
The cell line U2OS was seeded at a density of 9,000 cells per well in 96 well optical quality tissue culture plates in RPMI medium and 10% foetal bovine serum, and allowed to adhere for 24 hours under standard culture conditions (37 degree Celsius, 5% CO2). At the end of this period the medium was aspirated. Compound dilutions prepared in DMSO were added to medium, with negative control wells reserved for treatment with DMSO only and 100% inhibition positive controls receiving a potent inhibitor compound (e.g. cas 2055397-28-7, benzoic acid, 3-fluoro-5-(2-pyridinyl)-, 2-[(2-fluorophenyl)sulfonyl]hydrazide) (Baell, J., Nguyen, H. N., Leaver, D. J., Cleary, B. L., Lagiakos, H. R., Sheikh, B. N., Thomas. T. J., Aryl sulfonohydrazides, WO2016198507A1, 2016) at 10 μM concentration and 200 μL transferred to the cells. After incubation for 24 hours, the cells were fixed with 3.7% formaldehyde in PBS for 20 minutes at room temperature, washed (5×5 minutes) with phosphate buffer saline containing 0.1% Tween 20 and blocked with Odyssey blocking buffer (LI-COR, Lincoln, Nebr.) containing 0.1% TritonX100. Anti-H3K23ac specific antibody (Abcam ab177275) in Odyssey blocking buffer containing 0.1% Tween 20 was added and incubated for 16 hours at 4 degree Celsius. After washing (as above), a secondary antibody labelled with Alexa647 dye (LifeTechnologies) and Hoechst 33342 (1 μg/mL, SigmaAldrich) were added for 1 hour incubation. Plates were washed as previously and read on a PerkinElmer Phenix high content imaging platform. Using a Columbus image analysis pipeline, individual nuclei were located by Hoechst 33342 stain and the acetylation level was calculated from the Alexa647-related intensity in the same area. The resulting mean intensity per cell was directly converted to percent inhibition relative to controls on the same plate and the data fitted against a four-parameter logistic model to determine the 50% inhibitory concentration (IC50).

MOZ-KAT6A [5] = molecular target: T3, MOZ-KAT6A (Homo sapiens, UniProt Q92794, A567V); assay: Revised Acetyltransferase Biochemical Assay, KAT6A; settings: Table 8 (MOZ-KAT6A), 1 μM Acetyl coenzyme A
T3 construct: encoding amino acid residues 507 to 778 (Uniprot Q92794-1) of human KAT6A; made in house; host or cells: E. coli BL21 DE3
T3 sequence (Q92794 507-778 A567V limits assumed): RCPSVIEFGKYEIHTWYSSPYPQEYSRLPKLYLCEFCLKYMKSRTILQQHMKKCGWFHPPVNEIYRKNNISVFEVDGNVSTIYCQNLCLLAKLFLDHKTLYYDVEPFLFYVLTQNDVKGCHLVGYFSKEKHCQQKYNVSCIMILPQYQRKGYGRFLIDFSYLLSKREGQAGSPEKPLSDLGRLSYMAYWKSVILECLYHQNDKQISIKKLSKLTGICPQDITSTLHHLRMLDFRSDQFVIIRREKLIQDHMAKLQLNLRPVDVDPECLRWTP

MOZ-KAT6A [6] = molecular target: T3, MOZ-KAT6A; assay: Acetyltransferase biochemical assay (AlphaScreen), KAT6A; settings: Table 2 (MOZ-KAT6A); 10 μM Acetyl coenzyme A, histone H3.1, 5 nM enzyme
MOF-KAT8 [7] = molecular target: T4, MOF-KAT8 (Homo sapiens, UniProt Q9H7Z6); assay: Revised Acetyltransferase Biochemical Assay, KAT8
T4 sequence (Q9H7Z6 177-447): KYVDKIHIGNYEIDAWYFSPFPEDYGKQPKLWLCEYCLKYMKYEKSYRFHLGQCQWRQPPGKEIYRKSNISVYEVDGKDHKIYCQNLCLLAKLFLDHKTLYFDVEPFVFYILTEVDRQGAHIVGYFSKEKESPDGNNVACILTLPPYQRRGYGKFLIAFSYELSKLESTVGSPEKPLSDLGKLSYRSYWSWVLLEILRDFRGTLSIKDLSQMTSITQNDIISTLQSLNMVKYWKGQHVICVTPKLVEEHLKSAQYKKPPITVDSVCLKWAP

QKF-KAT6B = molecular target: T5, QKF-KAT6B (Homo sapiens, UniProt Q8WYB5); assay: Revised Acetyltransferase Biochemical Assay, KAT6B; settings: 8 nM KAT6B, 1 μM AcCoA, 100 nM histone H3.1, 90 min
T5 construct: purchased SignalChem K315-381BG
T5 sequence (Q8WYB5 whole entry): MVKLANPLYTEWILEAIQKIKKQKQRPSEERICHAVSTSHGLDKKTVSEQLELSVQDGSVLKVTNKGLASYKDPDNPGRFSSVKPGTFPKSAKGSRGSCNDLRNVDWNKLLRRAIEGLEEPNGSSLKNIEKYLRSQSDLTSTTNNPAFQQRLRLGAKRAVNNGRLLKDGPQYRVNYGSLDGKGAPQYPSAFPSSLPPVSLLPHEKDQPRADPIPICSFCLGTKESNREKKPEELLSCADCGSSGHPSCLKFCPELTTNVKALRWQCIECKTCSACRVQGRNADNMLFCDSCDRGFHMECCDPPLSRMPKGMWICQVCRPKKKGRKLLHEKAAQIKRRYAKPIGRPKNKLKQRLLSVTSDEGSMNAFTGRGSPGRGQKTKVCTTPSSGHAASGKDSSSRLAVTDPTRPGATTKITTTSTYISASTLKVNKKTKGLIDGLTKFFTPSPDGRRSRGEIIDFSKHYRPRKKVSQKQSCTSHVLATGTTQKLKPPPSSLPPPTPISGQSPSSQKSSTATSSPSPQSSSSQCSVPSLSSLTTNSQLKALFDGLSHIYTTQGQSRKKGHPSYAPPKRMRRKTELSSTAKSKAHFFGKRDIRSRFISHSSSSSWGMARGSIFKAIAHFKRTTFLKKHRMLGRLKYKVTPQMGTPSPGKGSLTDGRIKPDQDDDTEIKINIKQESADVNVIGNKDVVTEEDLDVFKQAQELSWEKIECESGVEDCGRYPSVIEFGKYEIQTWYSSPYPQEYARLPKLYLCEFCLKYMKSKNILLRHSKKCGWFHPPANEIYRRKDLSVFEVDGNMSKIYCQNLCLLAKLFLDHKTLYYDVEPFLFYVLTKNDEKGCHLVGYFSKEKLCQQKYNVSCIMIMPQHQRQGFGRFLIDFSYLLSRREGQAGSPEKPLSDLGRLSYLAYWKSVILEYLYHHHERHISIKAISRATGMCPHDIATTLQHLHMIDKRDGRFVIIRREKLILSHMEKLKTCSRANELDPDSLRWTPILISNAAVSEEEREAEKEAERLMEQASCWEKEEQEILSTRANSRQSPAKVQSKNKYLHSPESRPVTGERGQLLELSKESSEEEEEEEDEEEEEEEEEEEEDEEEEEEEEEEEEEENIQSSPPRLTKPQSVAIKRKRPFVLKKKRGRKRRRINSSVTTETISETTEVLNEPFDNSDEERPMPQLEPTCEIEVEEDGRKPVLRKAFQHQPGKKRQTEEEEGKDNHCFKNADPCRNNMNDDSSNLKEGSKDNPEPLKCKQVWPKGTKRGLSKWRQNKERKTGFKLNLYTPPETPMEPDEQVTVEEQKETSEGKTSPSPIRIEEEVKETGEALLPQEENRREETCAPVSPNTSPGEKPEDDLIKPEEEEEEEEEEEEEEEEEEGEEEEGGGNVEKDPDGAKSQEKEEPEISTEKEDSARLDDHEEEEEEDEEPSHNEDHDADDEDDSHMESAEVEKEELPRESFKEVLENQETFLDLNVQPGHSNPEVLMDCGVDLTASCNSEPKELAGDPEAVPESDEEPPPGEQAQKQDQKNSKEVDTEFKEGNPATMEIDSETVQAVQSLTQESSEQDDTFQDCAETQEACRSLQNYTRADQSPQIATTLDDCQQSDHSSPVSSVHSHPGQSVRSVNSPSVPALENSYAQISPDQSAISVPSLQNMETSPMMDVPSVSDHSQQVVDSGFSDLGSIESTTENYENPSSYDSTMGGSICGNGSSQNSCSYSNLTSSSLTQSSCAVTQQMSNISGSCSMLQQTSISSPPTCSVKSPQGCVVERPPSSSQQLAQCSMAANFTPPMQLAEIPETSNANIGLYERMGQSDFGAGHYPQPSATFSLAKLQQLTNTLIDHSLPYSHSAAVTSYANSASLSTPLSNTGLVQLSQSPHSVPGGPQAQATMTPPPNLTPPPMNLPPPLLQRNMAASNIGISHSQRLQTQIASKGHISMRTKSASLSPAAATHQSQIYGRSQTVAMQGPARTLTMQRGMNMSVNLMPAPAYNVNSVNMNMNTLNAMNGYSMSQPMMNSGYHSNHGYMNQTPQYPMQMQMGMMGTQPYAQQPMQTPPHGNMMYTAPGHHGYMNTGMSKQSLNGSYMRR
Description: KAT6B was obtained from SignalChem, catalog ID: K315-381BG

HBO-KAT7 [8] = molecular target: T1, HBO-KAT7; assay: Acetyltransferase biochemical assay (AlphaScreen), KAT7; settings: Table 3 (HBO-KAT7); 0.4 μM Acetyl coenzyme A, histone H3.1, 40 nM enzyme
MOF-KAT8 [9] = molecular target: T4, MOF-KAT8; assay: Acetyltransferase biochemical assay (AlphaScreen), KAT8; settings: Table 4 (MOF-KAT8); 0.4 μM Acetyl coenzyme A, histone H4, 20 nM enzyme
[10] = tested on: histone H3 Lysine 14 acetylation (HBO1 mediated) in U2OS cells; assay: Histone H3 Lysine 14 Acetylation Biomarker Assay (384-well, U2OS); type: cell-based; settings: Homo sapiens, serum free medium, 24 hours incubation
Method: Compounds may be tested for their ability to inhibit acetylation of the histone H3 Lysine 14 (which is HBO1 mediated) marker in the following assay:
The cell line U2OS was seeded at a density of 3,000 cells per well in 384-well optical quality tissue culture plates in RPMI medium supplemented with 10% foetal bovine serum and 10 mM Hepes. The cells were allowed to adhere for 24 hours under standard culture conditions (37 degree Celsius, 5% CO2). At the end of this period the cells were washed with serum free medium. Compound dilutions prepared in DMSO were added to the serum free medium, with negative control wells reserved for treatment with DMSO only and 100% inhibition positive controls receiving a potent inhibitor compound (e.g. (Z)-4-fluoro-N-((3-hydroxyphenyl)sulfonyl)-5-methyl-[1,1′-biphenyl]-3-carbohydrazonic acid) at 10 μM concentration. After incubation for 24 hours, the cells were fixed with 4% formaldehyde in PBS for 15 minutes at room temperature, washed with phosphate buffer saline and blocked with blocking buffer containing 0.2% TritonX100 and 2% BSA. Anti-H3K14ac specific antibody (Cell Signalling Technologies) in blocking buffer was added and incubated overnight at 4 degree Celsius. After washing, a secondary antibody labelled with AlexaFluor 488 dye (ThermoFisher) and Hoechst 33342 (1 μg/mL, Life Technologies) were added for 2 hours incubation at room temperature. Plates were washed and read on a
PerkinElmer Opera HCS high content imaging platform. Using a Columbus image analysis pipeline, individual nuclei were located by Hoechst 33342 stain and the acetylation level was calculated from the AlexaFluor 488-related intensity in the same area. The resulting mean intensity per cell was converted to percent inhibition relative to controls on the same plate and the data fitted against a four-parameter logistic model to determine the 50% inhibitory concentration (IC50).

[11] = tested on: histone H2A.Z Lysine 7 acetylation (TIP60 mediated) in U2OS cells; assay: H2A.Z Lysine 7 Acetylation Biomarker Assay (384-well, U2OS); type: cell-based; settings: Homo sapiens, serum free medium, 24 hours incubation
Outline: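 U2OS cells (3,000/well) were treated with compound for 24 h after a serum-free wash, then fixed. They were stained with anti-H2A.ZK7ac, an AlexaFluor 488 secondary and Hoechst. High-content imaging gave mean nuclear intensity per cell, converted to percent inhibition against on-plate controls, and IC50 came from a four-parameter logistic fit.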

| SMILES | IC50 (HBO-KAT7 [1]) [nM] | IC50 (TIP60-KAT5 [2]) [nM] | IC50 (TIP60-KAT5 [3]) [nM] | IC50 [4] [nM] | IC50 (MOZ-KAT6A [5]) [nM] | IC50 (MOZ-KAT6A [6]) [nM] | IC50 (MOF-KAT8 [7]; read-out: IC50 (MOF-KAT8), Revised acetyltransferase biochemical assay, 20 nM KAT8, 1 μM AcCoA, 100 nM histone H4, 90 min) [µM] | IC50 (QKF-KAT6B) [nM] | IC50 ([4]; Homo sapiens) [nM] | IC50 (HBO-KAT7 [8]) [nM] | IC50 (MOF-KAT8 [7]) [µM] | IC50 (MOF-KAT8 [9]) [µM] | IC50 [10] [µM] | IC50 [11] [µM] |
| --- | --- | --- | --- | --- | --- | --- | --- | --- | --- | --- | --- | --- | --- | --- |
| COCc1ccccc1CCNC(=O)C1=Nc2ccc(I)cc2S(=O)(=O)N1 [Example 14, 7-Iodo-N-(2-(methoxymethyl)phenethyl)-2H-benzo[e][1,2,4]thiadiazine-3-carboxamide 1,1-dioxide] | 83 | 2360 | 156 | – | 10 | – | – | 58 | 1060 | 1780 | 37.8 | – | – | – |
| O=C(NCC(c1ccccc1)c1nccs1)C1=Nc2ccc(Cl)cc2S(=O)(=O)N1 (centres unmarked) [Example 166] | 183 | – | 714 | – | 7 | – | – | 72 | 93 | – | 36.8 | – | 0.611 | 5.35 |
| O=C(NCCC1CCCCC1)C1=Nc2ccc(-c3c[nH]nn3)cc2S(=O)(=O)N1 [Example 201] | 56500 | – | 43700 | – | 268 | – | – | 5260 | > 10000 | – | – | – | > 40 | > 40 |
| O=C(NCCC1CCCCC1)C1=Nc2ccc(I)cc2S(=O)(=O)N1 [Example 204] | 59500 | – | > 125000 | – | 122 | – | – | > 125000 | > 10000 | – | > 125 | > 125 | – | > 40 |
| Cc1cc(O)cc(C(CNC(=O)C2=Nc3ccc(Cl)cc3S(=O)(=O)N2)c2ncco2)c1 (centres unmarked) [Example 221, 7-Chloro-N-(2-(3-hydroxy-5-methylphenyl)-2-(oxazol-2-yl)ethyl)-2H-benzo[e][1,2,4]thiadiazine-3-carboxamide 1,1-dioxide] | 72 | – | 1570 | – | 572 | – | – | 4340 | > 10000 | – | – | – | 1.66 | 6.87 |
| Cc1cccc(C(CNC(=O)C2=Nc3ccc(I)cc3S(=O)(=O)N2)c2ncco2)c1 (centres unmarked) [Example 233, 7-iodo-N-(2-(oxazol-2-yl)-2-(m-tolyl)ethyl)-2H-benzo[e][1,2,4]thiadiazine-3-carboxamide 1,1-dioxide] | 14 | – | 154 | – | 13 | – | – | 254 | – | 38 | 9.25 | 6.13 | 3.2 | 1.99 |
| O=C(NCC(F)(F)c1ccccc1)C1=Nc2ccc(I)cc2S(=O)(=O)N1 [Example 238, N-(2,2-difluoro-2-phenylethyl)-7-iodo-2H-benzo[e][1,2,4]thiadiazine-3-carboxamide 1,1-dioxide] | 881 | – | 1810 | – | 188 | – | – | 5870 | – | – | 25.6 | 41.4 | 13.7 | – |

Continued, values first:

| IC50 (HBO-KAT7 [1]) [nM] | IC50 (TIP60-KAT5 [2]) [nM] | IC50 (TIP60-KAT5 [3]) [nM] | IC50 [4] [nM] | IC50 (MOZ-KAT6A [5]) [nM] | IC50 (MOZ-KAT6A [6]) [nM] | IC50 (MOF-KAT8 [7]; read-out: IC50 (MOF-KAT8), Revised acetyltransferase biochemical assay, 20 nM KAT8, 1 μM AcCoA, 100 nM histone H4, 90 min) [µM] | IC50 (QKF-KAT6B) [nM] | IC50 ([4]; Homo sapiens) [nM] | IC50 (HBO-KAT7 [8]) [nM] | IC50 (MOF-KAT8 [7]) [µM] | IC50 (MOF-KAT8 [9]) [µM] | IC50 [10] [µM] | IC50 [11] [µM] | SMILES |
| --- | --- | --- | --- | --- | --- | --- | --- | --- | --- | --- | --- | --- | --- | --- |
| 1390 | 1650 | 1060 | 104 | 21 | 120 | 46.7 | 459 | – | – | – | – | – | – | O=C(NCC(c1ccccc1)c1ncco1)C1=Nc2ccc(F)cc2S(=O)(=O)N1 (single isomer, unassigned) [Example 144] |
| 12000 | 6890 | 5910 | – | 64 | 51.2 | – | 610 | 3820 | 1930 | > 125 | 78.2 | – | – | Cn1cc(-c2ccc3c(c2)S(=O)(=O)NC(C(=O)NCC(c2ccccc2)c2ncco2)=N3)cn1 (centres unmarked) [Example 25, 7-(1-Methyl-1H-pyrazol-4-yl)-N-(2-(oxazol-2-yl)-2-phenylethyl)-2H-benzo[e][1,2,4]thiadiazine-3-carboxamide 1,1-dioxide] |
| 5070 | 1660 | 5940 | – | 41 | 28.7 | – | 120 | 1080 | 1480 | 39.9 | 23.7 | – | – | O=C(NCC(c1ccccc1)c1ncco1)C1=Nc2ccc(-c3cn[nH]c3)cc2S(=O)(=O)N1 (centres unmarked) [Example 26, N-(2-(Oxazol-2-yl)-2-phenylethyl)-7-(1H-pyrazol-4-yl)-2H-benzo[e][1,2, 4]thiadiazine-3-carboxamide 1,1-dioxide] |
| 356 | 5040 | 5330 | – | 30 | 49.8 | – | 155 | > 10000 | 4640 | > 125 | 74.1 | – | – | CNC(=O)c1ccc2c(c1)S(=O)(=O)NC(C(=O)NCC(c1ccccc1)c1ncco1)=N2 (centres unmarked) [Example 32, N^7-Methyl-N^3-(2-(oxazol-2-yl)-2-phenylethyl)-2H-benzo[e][1,2,4]thiadiazine-3,7-dicarboxamide 1,1-dioxide] |
